The values that follow come from patent US10988523B2, “Modified lipidated Relaxin B chain peptides and their therapeutic use” (Sanofi, priority 2018, dated 2021).

*1 amine or outer side, *2 acyl side, *3 side chain or, on linkers, in order; H or OH if unused. Where a SMILES comes first, the peptide text is derived from it. Primed or numbered codes have the meaning given here. Side-chain parts run from the residue outwards. [ ]: non-standard residue; d: D form. The star is where a group is joined. X3 = CCCCCCCCCCCCCCCC(=O)N[C@@H](CCC(=O)N[C@@H](CCC(=O)N[C@@H](CCC(=O)N[C@@H](CCC(=O)NCCCC[C@H](NC(=O)CCC(=O)NCCCOCCOCCOCCCNC(=O)CCC(=O)NCCCOCCOCCOCCCN*)C(N)=O)C(=O)O)C(=O)O)C(=O)O)C(=O)O; PEG12 = NCCOCCOCCOCCOCCOCCOCCOCCOCCOCCOCCOCCOCCC(=O)O; γGlu = O=C(O)[C@H](CCC(=O)[*:2])N[*:1]; Stearoyl = CCCCCCCCCCCCCCCCCC(=O)*; Palmitoyl = CCCCCCCCCCCCCCCC(=O)*; αMeK = C[C@](N)(CCCCN)C(=O)O; Nle = CCCC[C@H](N)C(=O)O; PEG2″ = not defined here; AEEA = NCCOCCOCC(=O)O; Aib = CC(C)(N)C(=O)O

This assay concerns the target T1, RXFP1 (Homo sapiens, UniProt Q9HBX9).
T1 construct: OVCAR5 cells expressing endogenous RXFP1; endogenous in cells; host or cells: OVCAR5 cells
T1 sequence (Q9HBX9 1-757): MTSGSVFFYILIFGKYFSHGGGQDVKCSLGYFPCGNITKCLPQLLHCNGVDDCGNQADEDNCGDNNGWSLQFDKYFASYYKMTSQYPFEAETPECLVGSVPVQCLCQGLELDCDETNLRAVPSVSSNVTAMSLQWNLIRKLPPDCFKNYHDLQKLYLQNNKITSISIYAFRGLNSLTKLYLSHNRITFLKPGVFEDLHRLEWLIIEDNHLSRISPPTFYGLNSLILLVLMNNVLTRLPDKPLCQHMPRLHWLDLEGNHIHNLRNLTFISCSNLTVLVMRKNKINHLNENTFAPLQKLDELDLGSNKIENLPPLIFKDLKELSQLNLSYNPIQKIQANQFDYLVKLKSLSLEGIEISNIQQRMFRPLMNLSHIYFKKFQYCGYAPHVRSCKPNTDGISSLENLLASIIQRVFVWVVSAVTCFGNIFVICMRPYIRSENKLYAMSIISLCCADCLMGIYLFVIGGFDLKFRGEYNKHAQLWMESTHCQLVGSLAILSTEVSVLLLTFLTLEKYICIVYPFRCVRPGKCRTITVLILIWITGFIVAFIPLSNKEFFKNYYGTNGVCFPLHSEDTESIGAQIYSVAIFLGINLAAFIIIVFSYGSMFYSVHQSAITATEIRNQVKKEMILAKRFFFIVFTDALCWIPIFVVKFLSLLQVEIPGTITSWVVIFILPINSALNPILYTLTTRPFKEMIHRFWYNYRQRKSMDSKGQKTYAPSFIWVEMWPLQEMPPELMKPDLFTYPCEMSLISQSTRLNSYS
Put plainly: OVCAR5 cAMP assay (HTRF), RXFP1 agonist activity. The class given is cell-based. The note with it: for Emax: OVCAR-5, read-out: EMax, OVCAR 5 cells (cAMP); for EC50: OVCAR5 cells, cAMP HTRF, read-out: EC50 (nM), OVCAR 5 cells (cAMP). In a few lines: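 OVCAR5 cells (endogenous RXFP1) pretreated 40 min at 37° C with 1 mM IBMX, then exposed to peptides in serum-free medium for 30 min at 37° C. Lysate cAMP read by HTRF; EC50 from variable-slope sigmoidal fit; Emax as % of H2-relaxin maximal cAMP in same run.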

The mark [1] stands for this setting: maximal cAMP relative to H2-relaxin maximum (100%).

Consider `CCCCCCCCCCCCCCCCCC(=O)N[C@@H](CCC(=O)N[C@@H](CCC(=O)N[C@@H](CCC(=O)NCCOCCOCC(=O)NCCOCCOCC(=O)NCCCC[C@H](NC(=O)[C@H](CCCCN)NC(=O)[C@H](CCCNC(=N)N)NC(=O)C(C)(C)NC(=O)[C@H](CO)NC(=O)[C@H](Cc1c[nH]c2ccccc12)NC(=O)[C@@H](NC(=O)[C@H](CO)NC(=O)[C@H](CCCC)NC(=O)CNC(=O)[C@H](CCC(=O)O)NC(=O)C(C)(C)NC(=O)C(C)(C)NC(=O)[C@@H](NC(=O)[C@H](CCC(N)=O)NC(=O)[C@H](C)NC(=O)[C@H](CCCNC(=N)N)NC(=O)[C@@H](NC(=O)[C@H](CCCCN)NC(=O)[C@H](CCC(=O)O)NC(=O)[C@H](CCCNC(=N)N)NC(=O)CNC(=O)[C@H](CCC(=O)O)NC(=O)[C@H](CC(C)C)NC(C)=O)C(C)C)[C@@H](C)CC)[C@@H](C)O)C(N)=O)C(=O)O)C(=O)O)C(=O)O` [compound 67] (Ac-LEGREKVRAQI[Aib][Aib]EG[Nle]STWS[Aib]RKK([AEEA-AEEA-γGlu-γGlu-γGlu-Stearoyl])-NH2), for which the Emax – broadly, the greatest response seen or fitted, relative to the assay's reference – under setting [1] is 89%.

`CCCCCCCCCCCCCCCC(=O)N[C@@H](CCC(=O)N[C@@H](CCC(=O)N[C@@H](CCC(=O)NCCCC[C@H](NC(=O)COCCOCCNC(=O)COCCOCCNC(=O)COCCOCCNC(=O)[C@H](CCCCNC(C)=O)NC(=O)[C@H](CCCCN)NC(=O)[C@H](CCCNC(=N)N)NC(=O)C(C)(C)NC(=O)[C@H](CO)NC(=O)[C@H](Cc1ccc(O)cc1)NC(=O)[C@@H](NC(=O)[C@H](CO)NC(=O)[C@H](CCC(N)=O)NC(=O)CNC(=O)[C@H](CCC(=O)O)NC(=O)C(C)(C)NC(=O)C(C)(C)NC(=O)[C@@H](NC(=O)[C@H](CCCCNC(C)=O)NC(=O)[C@H](C)NC(=O)[C@H](CCCNC(=N)N)NC(=O)[C@@H](NC(=O)[C@H](CCCCN)NC(=O)[C@H](CCC(=O)O)NC(=O)[C@H](CCCNC(=N)N)NC(=O)CNC(=O)[C@H](CCC(=O)O)NC(=O)[C@H](CC(C)C)NC(C)=O)C(C)C)[C@@H](C)CC)[C@@H](C)O)C(N)=O)C(=O)O)C(=O)O)C(=O)O` [compound 179] (Ac-LEGREKVRAK(Ac)I[Aib][Aib]EGQSTYS[Aib]RKK(Ac)[AEEA][AEEA][AEEA]K([γGlu-γGlu-γGlu-Palmitoyl])-NH2): under setting [1], the maximal response (Emax) came to 80%. Turning to `CCCCCCCCCCCCCCCC(=O)N[C@@H](CCC(=O)N[C@@H](CCC(=O)N[C@@H](CCC(=O)N[C@@H](CCC(=O)NCCCC[C@H](NC(=O)CCC(=O)NCCCOCCOCCOCCCNC(=O)CCC(=O)NCCCOCCOCCOCCCNC(=O)[C@H](CCCCNC(C)=O)NC(=O)[C@H](CCCCN)NC(=O)[C@H](CCCNC(=N)N)NC(=O)[C@](C)(CCCCN)NC(=O)[C@H](CO)NC(=O)[C@H](Cc1ccccc1)NC(=O)[C@@H](NC(=O)[C@H](CO)NC(=O)[C@H](CCCC)NC(=O)CNC(=O)[C@H](CCC(=O)O)NC(=O)C(C)(C)NC(=O)C(C)(C)NC(=O)[C@@H](NC(=O)[C@H](CCCCNC(C)=O)NC(=O)[C@H](C)NC(=O)[C@H](CCCNC(=N)N)NC(=O)[C@@H](NC(=O)[C@H](CCCCN)NC(=O)[C@H](CCC(=O)O)NC(=O)[C@H](CCCNC(=N)N)NC(=O)CNC(=O)[C@H](CCC(=O)O)NC(=O)[C@H](CC(C)C)NC(C)=O)C(C)C)[C@@H](C)CC)[C@@H](C)O)C(N)=O)C(=O)O)C(=O)O)C(=O)O)C(=O)O` [compound 142] (Ac-LEGREKVRAK(Ac)I[Aib][Aib]EG[Nle]STFS[αMeK]RKK(Ac)-X3), the EC50 (usually the concentration giving half of the maximal effect) stood at 0.02 nM. The Emax under setting [1] is 91%. For “127 (Ac-LEGREKVRAK(Ac)I[Aib][Aib]EG[Nle]STWS[Aib]RKLK([PEG2″-PEG2″-PEG2″-γGlu-γGlu-γGlu-Stearoyl])-NH2) [compound 127]”, the EC50 turned out to be 4.4 nM. For the same compound, the “EMax, OVCAR 5 cells (cAMP)” value under setting [1] was 88%.

On to `CCCCCCCCCCCCCCCC(=O)N[C@@H](CCC(=O)N[C@@H](CCC(=O)N[C@@H](CCC(=O)NCCOCCOCC(=O)NCCOCCOCC(=O)NCCOCCOCC(=O)NCCCC[C@H](NC(=O)[C@H](CCCCNC(C)=O)NC(=O)[C@H](CCCCN)NC(=O)[C@H](CCCNC(=N)N)NC(=O)C(C)(C)NC(=O)[C@H](CO)NC(=O)[C@H](Cc1ccc(O)cc1)NC(=O)[C@@H](NC(=O)[C@H](CO)NC(=O)[C@H](CCC(N)=O)NC(=O)CNC(=O)[C@H](CCC(=O)O)NC(=O)C(C)(C)NC(=O)C(C)(C)NC(=O)[C@@H](NC(=O)[C@H](CCCCNC(C)=O)NC(=O)[C@H](C)NC(=O)[C@H](CCCNC(=N)N)NC(=O)[C@@H](NC(=O)[C@H](CCCCN)NC(=O)[C@H](CCC(=O)O)NC(=O)[C@H](CCCNC(=N)N)NC(=O)CNC(=O)[C@H](CCC(=O)O)NC(=O)[C@H](CC(C)C)NC(C)=O)C(C)C)[C@@H](C)CC)[C@@H](C)O)C(N)=O)C(=O)O)C(=O)O)C(=O)O` [compound 44] (Ac-LEGREKVRAK(Ac)I[Aib][Aib]EGQSTYS[Aib]RKK(Ac)K([AEEA-AEEA-AEEA-γGlu-γGlu-γGlu-Palmitoyl])-NH2), for which the Emax under setting [1] amounted to 75%. For the compound `CCCCCCCCCCCCCCCCCC(=O)N[C@@H](CCC(=O)NCCCC[C@H](NC(=O)[C@H](CCCCN)NC(=O)[C@H](CCCNC(=N)N)NC(=O)C(C)(C)NC(=O)[C@H](CO)NC(=O)[C@H](Cc1c[nH]c2ccccc12)NC(=O)[C@@H](NC(=O)[C@H](CO)NC(=O)[C@H](CCCC)NC(=O)CNC(=O)[C@H](CCC(=O)O)NC(=O)C(C)(C)NC(=O)C(C)(C)NC(=O)[C@@H](NC(=O)[C@H](CCC(N)=O)NC(=O)[C@H](C)NC(=O)[C@H](CCCNC(=N)N)NC(=O)[C@@H](NC(=O)[C@H](CCCCN)NC(=O)[C@H](CCC(=O)O)NC(=O)[C@H](CCCNC(=N)N)NC(=O)CNC(=O)[C@H](CCC(=O)O)NC(=O)[C@H](CC(C)C)NC(C)=O)C(C)C)[C@@H](C)CC)[C@@H](C)O)C(N)=O)C(=O)O` [compound 3] (Ac-LEGREKVRAQI[Aib][Aib]EG[Nle]STWS[Aib]RKK([γGlu-Stearoyl])-NH2), the Emax under setting [1] came to 93%. As for `CCCCCCCCCCCCCCCCCC(=O)N[C@@H](CCC(=O)N[C@@H](CCC(=O)N[C@@H](CCC(=O)NCCCC[C@H](NC(=O)CCOCCOCCOCCOCCOCCOCCOCCOCCOCCOCCOCCOCCNC(=O)[C@H](CCCCN)NC(=O)[C@H](CCCNC(=N)N)NC(=O)C(C)(C)NC(=O)[C@H](CO)NC(=O)[C@H](Cc1c[nH]c2ccccc12)NC(=O)[C@@H](NC(=O)[C@H](CO)NC(=O)[C@H](CCCC)NC(=O)CNC(=O)[C@H](CCC(=O)O)NC(=O)C(C)(C)NC(=O)C(C)(C)NC(=O)[C@@H](NC(=O)[C@H](CCCCNC(C)=O)NC(=O)[C@H](C)NC(=O)[C@H](CCCNC(=N)N)NC(=O)[C@@H](NC(=O)[C@H](CCCCN)NC(=O)[C@H](CCC(=O)O)NC(=O)[C@H](CCCNC(=N)N)NC(=O)CNC(=O)[C@H](CCC(=O)O)NC(=O)[C@H](CC(C)C)NC(C)=O)C(C)C)[C@@H](C)CC)[C@@H](C)O)C(N)=O)C(=O)O)C(=O)O)C(=O)O` [compound 34] (Ac-LEGREKVRAK(Ac)I[Aib][Aib]EG[Nle]STWS[Aib]RK[PEG12]K([γGlu-γGlu-γGlu-Stearoyl])-NH2), the Emax under setting [1] amounted to 95%. As to `CCCCCCCCCCCCCCCC(=O)N[C@@H](CCC(=O)NCCCC[C@H](NC(=O)CC[C@H](NC(=O)CC[C@H](NC(=O)COCCOCCNC(=O)COCCOCCNC(=O)COCCOCCNC(=O)COCCOCCNC(=O)[C@H](CCCCNC(C)=O)NC(=O)[C@H](CCCCN)NC(=O)[C@H](CCCNC(=N)N)NC(=O)C(C)(C)NC(=O)[C@H](CO)NC(=O)[C@H](Cc1c[nH]c2ccccc12)NC(=O)[C@@H](NC(=O)[C@H](CO)NC(=O)[C@H](CCCC)NC(=O)CNC(=O)[C@H](CCC(=O)O)NC(=O)C(C)(C)NC(=O)C(C)(C)NC(=O)[C@@H](NC(=O)[C@H](CCCCNC(C)=O)NC(=O)[C@H](C)NC(=O)[C@H](CCCNC(=N)N)NC(=O)[C@@H](NC(=O)[C@H](CCCCN)NC(=O)[C@H](CCC(=O)O)NC(=O)[C@H](CCCNC(=N)N)NC(=O)CNC(=O)[C@H](CCC(=O)O)NC(=O)[C@H](CC(C)C)NC(C)=O)C(C)C)[C@@H](C)CC)[C@@H](C)O)C(=O)O)C(=O)O)C(N)=O)C(=O)O` [compound 116] (Ac-LEGREKVRAK(Ac)I[Aib][Aib]EG[Nle]STWS[Aib]RKK(Ac)[AEEA][AEEA][AEEA][AEEA][γGlu][γGlu]K([γGlu-Palmitoyl])-NH2), the EC50 was 1 nM. Under setting [1], the Emax turned out to be 89%.
